According to publication PMC7566913, “Dual Gene Delivery Reagents From Antiproliferative Alkylphospholipids for Combined Antitumor Therapy” (Frontiers in Chemistry, 2020):
Where “and” joins values, the source holds several entries; their conditions need not be identical. Identical values can stand only once. Like-named read-outs stand apart in the source and are kept apart here.

What was measured:
[1] = CMC/CAC by pyrene fluorescent probe technique in ultrapure water; format: physicochemical; conditions: pyrene fluorescence
Description: The pro-APL molecules have been specifically engineered so they can be metabolized in situ under a biological stimulus to revert to the parent APL with antiproliferative activity. […] We thus aimed to determine the self-assembly properties of the APL prodrugs. […] Pyrene is a probe which fluorescence is sensitive to the polarity of the solubilizing medium. […] Fluorescence measurements were carried out in ultrapure water and data obtained for the various APLs and their prodrugs are shown in Table 2.
Pro-APLs Self-Assembly Properties
Starting from a lipid film, compounds were […]

16HBE cells [2] = test: Cytotoxicity, MTT assay, 16HBE; format: cell-based, human; conditions: 24 h at 37°C
Description: (§1) The cells were exposed for a 24-h period to increasing concentration of the pro-APLs, ranging from 500 nM to 1 mM, and cell viability was assessed using the MTT colorimetric assay (Mosmann, [1983]). For the three cell lines, viability decreased in a dose-dependent manner in response to APLs and pro-APLs (Supplementary Figures 2–4). Using the best-fit regression curve method, the IC50 value (concentration that provokes 50% inhibition of the cell growth) was calculated for each compound (Table 4). The three cell lines responded to the compounds with varying sensitivities. […] This is attributed to enzyme-mediated hydrolysis of the pro-APL compounds in the complemented culture medium or in the intracellular compartment, competing with pure pH-controlled chemical hydrolysis. According to its structure, a pro-APL may or not be a substrate for specific lipases and, thus, may or not be hydrolyzed into the parent cytotoxic compound. […]
(§2) At confluency, cells were released […]
(§3) Cells were seeded into 96-well plates (Becton-Dickinson) at the required density (vide supra) in 100 µL of serum containing culture medium. […]
(§4) Mitochondrial activity measurements (MTT assay) was used to assess cytotoxicity of the compounds.
(§5) Lipid samples were prepared from a lipid film (3.6 µmol of compound evaporated from an ethanolic solution) hydrated with aqueous glucose 5 % and vigorously vortexed for 20 s before serial dilution in aqueous glucose 5 %. For addition of lipid samples to cell culture, part of the culture medium in the culture plates prepared the day before (25 µL) was removed and replaced by lipid samples (25 µL). Negative control was obtained by adding glucose 5 % to the cells instead of lipoplexes.
(§6) After a 24-h incubation period at 37 °C, culture supernatant was removed, cells were carefully washed with PBS and MTT (100 µL, 0.5 mg/mL) in complete culture medium was added. After a 1-h incubation period at 37 °C, the MTT sol ution was removed and DMSO (100 µL) was added to lyse cells and dissolve reduced MTT. Intensity of MTT reduction was then evaluated by measuring absorbance at 492 nm. Viability of cells treated with lipids or lipoplexes was expressed as the percentage of the absorbance measured in untreated cells. Value for each sample is the mean of triplicate determinations (± SD). IC50 values were determined within the 95 % confidence interval using nonlinear regression analysis with the GraphPad Prism software (GraphPad Software, San […]
(§7) All data are representative of a triplicate determination and are presented as the mean ± SD.
(§8) Statistical significance between treatments was assessed by one-way analysis of variance (ANOVA) followed by the Dunnett multiple comparison test, using the Kaleidagraph 4.5 software (Synergy Software, Reading, PA, USA). Data were considered as statistically significant for p value less than

[3] = Particle size and zeta potential of lipoplexes by DLS; format: physicochemical; conditions: lipoplexes with pCMV-Gluc, 25 °C, 5 % glucose, N/P 3, 1 molar equivalent of DOPE
Text: The capacity of the pro-APLs to interact electrostatically with nucleic acids and form lipoplexes was checked by standard agarose gel electrophoresis. […] The size (hydrodynamic diameter) and charge (zeta potential, ζ) of the lipoplexes prepared at an N/P ratio of 3 with one molar equivalent of dioleoyl-sn-glycero-3-phosphatidylethanolamine (DOPE), a lipid with fusogenic properties (Hui et al., [1996]; Zuhorn et al., [2005]), were investigated by DLS (Supplementary Table 1).
as measured by DLS. Lipoplexes were prepared at 25 °C, in 5 % glucose, at a N/P ratio of 3 and with
1 molar equivalent of DOPE.
(Gaillard et al., 2019). Data are the mean of three independent measurements (± SD).

H292 cells [4] = test: Cytotoxicity, MTT assay, H292; format: cell-based, human
Description: as §1, §2, §3, §4, §5, §6, §7, §8

A549 cells [5] = test: Cytotoxicity, MTT assay, A549; format: cell-based, human; conditions: A549, 24 h at 37°C
Description: as §1, §2, §3, §4, §5, §6, §7, §8

[6] = Hydrolytic stability of the APL prodrugs monitored by 31P-NMR; format: physicochemical; conditions: for Hydrolytic stability after extended incubation: pH 7.4 and pH 4.5, 31 days at 25°C; for half-life: extrapolated from the experimental data, read-out: t1/2 (time needed for 50% hydrolysis) (converted)
Text: Aqueous formulation of the APL prodrugs produces nanosized lipid aggregates that most likely enter cells through the endocytosis pathway. To produce the expected intrinsic antineoplastic effect, APL-derived phosphotriesters need to be processed into the bioactive parent APLs. The hydrolysis of the prodrugs may be under the control of a chemical stimulus, e.g., a pH decrease as observed during the maturation of endosomes, or of degradation enzymes that massively enter the endosome compartment when continuing to lysosomes. To get some information on the transformation of pro-APLs into APLs, we monitored the hydrolysis of these compounds over time, at pH 7.4 and 4.5, conditions that mimick the extracellular milieu and the environment of the late endosome, respectively. This monitoring was realized using ^31P-NMR spectroscopy, according to a previously reported method (Pierrat et al., [2013b]). Whatever the compound investigated, only one single ^31P resonance did appear during the course of the experiments, corresponding to that of the parent APL. This confirmed that hydrolysis of the pro-APLs selectively occurred at the acetal center. […] As a general trend, hydrolysis of the pro-APLs was […] under neutral conditions (i.e., pH 7.4) than under acidic ones (i.e., pH 4.5). […] Besides, substitution of one hydrogen atom with a methyl group on the acetal bridge accelerated the rate of hydrolysis of the prodrugs. […] Indeed, in biological media, the enzyme-mediated hydrolysis of such compounds can proceed far quicker than “simple” chemical hydrolysis under pH control (Pierrat et al., [2012]). […]

[7] = parameters: method as in Gaillard et al., 2019; conditions: ref Gaillard et al., 2019, cited from earlier work
16HBE cells [8] = test system: 16HBE cells; parameters: method as in Gaillard et al., 2019; conditions: 24 h at 37°C, MTT assay, ref Gaillard et al., 2019; cited from earlier work
[9] = parameters: method as in Gaillard et al., 2019; conditions: pyrene fluorescence, ref Gaillard et al., 2019, cited from earlier work
[10] = parameters: method as in Gaillard et al., 2019; conditions: lipoplexes with pCMV-Gluc, N/P 3, 1 molar equivalent of DOPE; ref Gaillard et al., 2019; cited from earlier work
H292 cells [11] = test system: H292 cells; parameters: method as in Gaillard et al., 2019; conditions: H292, 24 h at 37°C, MTT assay; ref Gaillard et al., 2019; cited from earlier work
A549 cells [12] = test system: A549 cells; parameters: method as in Gaillard et al., 2019; conditions: A549, 24 h at 37°C, MTT assay; ref Gaillard et al., 2019; cited from earlier work
sheep RBC [13] = conditions: cited from earlier work
sheep RBC [14] = test: Hemolytic activity, red blood cell leakage assay; conditions: 37°C
Description: To evaluate this hypothesis, the hemolytic activity of the APLs and pro-APLs was measured. Sheep RBC were incubated for 1 h with escalating doses of aqueous dispersion of the compounds at 37°C. At the end of the incubation period, hemoglobin leakage was determined spectrophotometrically.
Thus, in order to better characterize the hemolytic effect of the pro-APLs, the incubation period has been extended and release of hemoglobin was measured after 24 h.
Red blood cell (RBC) leakage assay was carried out according to a previously described procedure
(Evans et al, 2013). RBC were prepared from defibrinated sheep blood. Briefly, blood sample (5 mL) was centrifuged at 500 x g for 5 min. After removal of the yellow upper layer, an equal volume of

[15] = Homo sapiens, NCI-H292, H292, 24 h at 37°C
[16] = HEPES buffer with Triton X-100, pH 7.4
[17] = potassium acetate/acetic acid buffer with Triton X-100, pH 4.5

| Compound | CMC (APLs) / CAC (pro-APLs) [1] | Particle size of lipoplexes [3] | H120 (hydrolysis rate after a 120-h incubation period) ([6]; pH 4.5) | H120 (hydrolysis rate after a 120-h incubation period) ([6]; pH 7.4) | IC50 (16HBE cells [2]; Homo sapiens) | HA200 (hemolytic activity at 200 μM) (sheep RBC [14]; 24 h) | IC50 (H292 cells [4]; [15]) | IC50 (A549 cells [5]; Homo sapiens) | other results |
| --- | --- | --- | --- | --- | --- | --- | --- | --- | --- |
| 3-((((((Dodecyloxy)carbonyl)oxy)methoxy)(hexadecyloxy)phosphoryl)oxy)-N,N,N-trimethylpropan-1- aminium chloride [MC12] | 4.1 ± 2.5 µM | 186 ± 48 nm | 3% | 11% |  |  |  |  | IC50 (16HBE cells [2]): 62 ± 15 µM; IC50 (H292 cells [4]; H292, 24 h at 37°C): 81 ± 29 µM; IC50 (A549 cells [5]): 151 ± 42 µM |
| 3-((((((Dodecyloxy)carbonyl)oxy)methoxy)(octadecyloxy)phosphoryl)oxy)-N,N,N-trimethylpropan-1-aminium chloride [PC12] | 4.5 ± 1.6 µM | 576 ± 41 nm | 6% | 6% |  |  |  |  | IC50 (16HBE cells [2]): 82 ± 33 µM; IC50 (H292 cells [4]; H292, 24 h at 37°C): 73 ± 17 µM; IC50 (A549 cells [5]): 89 ± 24 µM |
| CCCCCCCC/C=C\CCCCCCCCCCCCOP(=O)(OCCCCCCCCCCCC)OCCC[N+](C)(C)C (stereo not drawn) [Compound E12] |  |  |  |  |  |  |  |  | H120 (hydrolysis rate after a 120-h incubation period) ([7]; pH 4.5): 0%; H120 (hydrolysis rate after a 120-h incubation period) ([7]; pH 7.4): 0%; Hydrolytic stability after extended incubation ([7]; pH 7.4 and pH 4.5, 31 days): fully stable; IC50 (16HBE cells [8]): 225 ± 31 µM; CMC (APLs) / CAC (pro-APLs) [9]: 0.7 ± 0.3 µM; Particle size of lipoplexes [10]: 194 ± 28 nm and 194 nm; IC50 (H292 cells [11]): 124 ± 11 µM; IC50 (A549 cells [12]): 81 ± 7 µM; HA200 (hemolytic activity at 200 μM) (sheep RBC [13]; sheep RBC, 1 h, 37°C, ref Gaillard et al., 2019): 1.9 ± 0.7%; HA200 (hemolytic activity at 200 μM) (sheep RBC [13]; sheep RBC, 24 h, 37°C, ref Gaillard et al., 2019): 12.0 ± 1.9% |
| CCCCCCCCCCCCCCCCOP(=O)(OCCCCCCCCCCCC)OCC[N+](C)(C)C (stereo not drawn) [Compound M12, 2-(((Dodecyloxy)(hexadecyloxy)phosphoryl)oxy)-N,N,N-trimethylethan-1-aminium triflate] | 1.1 ± 0.6 µM | 121 ± 13 nm | 0% | 0% | 107 ± 14 µM | 63.9 ± 8.1% | 56 ± 7 µM | 46 ± 11 µM | HA200 (hemolytic activity at 200 μM) (sheep RBC [14]; 1 h): 13.1 ± 1.0%; Hydrolytic stability after extended incubation [6]: fully stable |
| CCCCCCCCCCCCCCCCCCOP(=O)(OCCCCCCCCCCCC)OC1CC[N+](C)(C)CC1.[Cl-] (stereo not drawn) [Compound P12, 4-(((Dodecyloxy)(octadecyloxy)phosphoryl)oxy)-1,1-dimethylpiperidin-1-ium chloride] | 1.2 ± 0.4 µM | 348 ± 43 nm | 0% | 0% | 72 ± 7 µM | 35.7 ± 4.1% | 63 ± 5 µM | 56 ± 7 µM | HA200 (hemolytic activity at 200 μM) (sheep RBC [14]; 1 h): 8.1 ± 0.9%; Hydrolytic stability after extended incubation [6]: fully stable |
| CCCCCCCCCCCCCCCCOP(=O)(OCC[N+](C)(C)C)OC(C)OC(=O)CCCCCCCCCCC.[Cl-] (stereo not drawn) [M E^′12, 2-(((1-(Dodecanoyloxy)ethoxy)(hexadecyloxy)phosphoryl)oxy)-N,N,N-trimethylethan-1-aminium chloride] | 1.3 ± 0.7 µM | 86 ± 3 nm | 91% | 89% | 49 ± 6 µM | 101.7 ± 1.8% | 59 ± 10 µM | 139 ± 32 µM | half-life [6, 16]: 0.75 days; half-life [6, 17]: 0.708 days |
| CCCCCCCCCCCCCCCCCCOP(=O)(OC1CC[N+](C)(C)CC1)OC(C)OC(=O)CCCCCCCCCCC.[Cl-] (stereo not drawn) [P E^′12, 4-(((1-(Dodecanoyloxy)ethoxy)(octadecyloxy)phosphoryl)oxy)-1,1-dimethylpiperidin-1-ium chloride] | 2.3 ± 1.4 µM | 610 ± 54 nm | 60% | 60% | 60 ± 5 µM | 80.1 ± 0.2% | 116 ± 25 µM | 148 ± 38 µM | half-life [6, 16]: 3.5 days; half-life [6, 17]: 3.75 days |
| CCCCCCCC/C=C\CCCCCCCCOP(=O)(OCCC[N+](C)(C)C)OCOC(=O)OCCCCCCCCCCCC.[Cl-] (stereo not drawn) [PC18:1, 3-((((((Dodecyloxy)carbonyl)oxy)methoxy)(oleyloxy)phosphoryl)oxy)-N,N,N-trimethylpropan-1-aminium chloride] | 2.3 ± 1.0 µM | 489 ± 130 nm |  |  | 207 ± 49 µM |  | 186 ± 42 µM | 273 ± 69 µM |  |
| Erufosine [reference compound] |  |  |  |  |  |  |  |  | IC50 (16HBE cells [8]): 19 ± 3 µM; CMC (APLs) / CAC (pro-APLs) [9]: 1.6 ± 0.5 µM; CMC (APLs) / CAC (pro-APLs) ([9]; listed as erufosine): 1.6 µM; IC50 (H292 cells [11]): 46 ± 8 µM; IC50 (A549 cells [12]): 57 ± 8 µM; HA200 (hemolytic activity at 200 μM) (sheep RBC [13]): 84.9 ± 4.5% |
